Assay results: US6867185B2 (Bristol-Myers Squibb Company, priority 2001, dated 2005)
Structures can show the parent of a compound that is named as a salt.

Assays:
[1] = target: T1, HCV NS3/4A protease complex, BMS strain (genotype 1a) (Hepatitis C virus genotype 1a, UniProt P27958, C1454S/C1711G); test: Recombinant HCV NS3/4A protease complex FRET peptide assay (BMS strain); format: biochemical; settings: IC50, HCV NS3/4A protease FRET assay in vitro; IC50 ranges
T1 construct: recombinant HCV NS3/4A protease complex (amino'acids 1027 to 1711); inferred from the pET21b vector and Ni-NTA purification; made in house; host or cells: Escherichia coli BL21 (DE3), pET21b
T1 sequence (P27958 1027-1711 C1454S/C1711G, one chain of several): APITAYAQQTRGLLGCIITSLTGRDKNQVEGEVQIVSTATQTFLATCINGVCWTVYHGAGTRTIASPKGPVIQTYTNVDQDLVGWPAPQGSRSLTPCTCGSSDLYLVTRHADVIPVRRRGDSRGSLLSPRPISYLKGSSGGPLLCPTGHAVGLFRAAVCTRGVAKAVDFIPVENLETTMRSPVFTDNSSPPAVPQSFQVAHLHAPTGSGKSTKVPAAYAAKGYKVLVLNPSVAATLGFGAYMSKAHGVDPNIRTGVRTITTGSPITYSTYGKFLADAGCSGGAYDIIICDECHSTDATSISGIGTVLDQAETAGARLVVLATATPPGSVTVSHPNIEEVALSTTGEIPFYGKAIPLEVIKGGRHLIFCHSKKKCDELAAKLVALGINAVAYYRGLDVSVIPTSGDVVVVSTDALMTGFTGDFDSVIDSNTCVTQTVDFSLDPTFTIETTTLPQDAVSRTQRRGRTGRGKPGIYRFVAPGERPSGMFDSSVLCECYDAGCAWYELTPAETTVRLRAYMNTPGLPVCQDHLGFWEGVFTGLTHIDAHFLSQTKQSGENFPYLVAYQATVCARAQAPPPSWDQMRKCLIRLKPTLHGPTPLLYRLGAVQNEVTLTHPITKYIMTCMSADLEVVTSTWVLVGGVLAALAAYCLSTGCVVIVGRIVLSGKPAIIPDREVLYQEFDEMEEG
Description: The purpose of this in vitro assay was to measure the inhibition of HCV NS3 protease complexes, derived from the BMS, H77C or J4L6S strains, as described below, by compounds of the present invention. This assay provides an indication of how effective compounds of the present invention would be in inhibiting HCV proteolytic activity.
Serum from an HCV-infected patient was obtained from Dr. T. Wright, San Francisco Hospital. An engineered full-length cDNA (compliment deoxyribonucleic acid) template of the HCV genome (BMS strain) was constructed from DNA fragments obtained by reverse transcription-PCR (RT-PCR) of serum RNA (ribonucleic acid) and using primers selected on the basis of homology between other genotype 1a strains. From the determination of the entire genome sequence, a genotype 1a was assigned to the HCV isolate according to the classification of Simmonds et al. (See P Simmonds, K A Rose, S Graham, S W Chan, F McOmish, B C Dow, E A Follett, P L Yap and H Marsden, J. Clin. Microbiol., 31 (6), 1493-1503 (1993)). […] The infectious clones, H77C (1a genotype) and J4L6S (1b genotype) were obtained from R. Purcell (N1H) and the sequences are published in Genbank (AAB67036, see Yanagi, M., Purcell, R. H., Emerson, S. U. and Bukh, J. Proc. Natl. Acad. Sci. U.S.A. 94 (16), 8738-8743 (1997); AF054247, see Yanagi, M., St Claire, M., Shapiro, M., Emerson, S. U., Purcell, R. H. and Bukh, J, Virology 244 (1), 161-172. (1998)).
The BMS, H77C and J4L6S strains were used for production of recombinant NS3/4A protease complexes. DNA encoding the recombinant HCV NS3/4A protease complex (amino'acids 1027 to 1711) for these strains were manipulated as described by P. Gallinari et al. (see Gallinari P, Paolini C, Brennan D, Nardi C, Steinkuhler C, De Francesco R. Biochemistry. 38 (17):5620-32, (1999)). Briefly, a three-lysine solubilizing tail was added at the 3′-end of the NS4A coding region. The cysteine in the P1 position of the NS4A-NS4B cleavage site (amino acid 1711) was changed to a glycine to avoid the proteolytic cleavage of the lysine tag. Furthermore, a cysteine to serine mutation was introduced by PCR at amino acid position 1454 to prevent the autolytic cleavage in the NS3 helicase domain. The variant DNA fragment was cloned in the pET21b bacterial expression vector (Novagen)and the NS3/4A complex was expressed in Escherichia. coli strain BL21 (DE3) (Invitrogen) following the protocol described by P. Gallinari et al. (see Gallinari P, Brennan D, Nardi C, Brunetti M, Tomei L, Steinkuhler C, De Francesco R., J. Virol. 72 (8):6758-69 (1998)) with modifications. Briefly, NS3/4A expression was induced with 0.5 mM Isopropyl β-D-1-thiogalactopyranoside (IPTG) for 22 hr at 20° C. A typical fermentation (10L) yielded approximately 80 g of wet cell paste. The cells were resuspended in lysis buffer (10 mL/g) consisting of 25 mM N-(2-Hydroxyethyl)Piperazine-N′-(2-Ethane Sulfonic acid) (HEPES), pH 7.5, 20% glycerol, 500 mM Sodium Chloride (NaCl), 0.5% Triton-X100, 1 ug/ml lysozyme, 5 mM Magnesium Chloride (MgCl2), 1 ug/ml Dnasel, 5 mM β-Mercaptoethanol (OME), Protease inhibitor-Ethylenediamine Tetraacetic acid (EDTA) free (Roche), homogenized and incubated for 20 mins at 4° C. The homogenate was sonicated and clarified by ultra-centrifugation at 235000 g for 1 hr at 4° C. Imidazole was added to the supernatant to a final concentration of 15 mM and the pH adjusted to 8.0. The crude protein extract was loaded on a Nickel-Nitrilotriacetic acid (Ni-NTA) column pre-equilibrated with buffer B (25 mM HEPES, pH 8.0, 20% glycerol, 500 mM NaCl, 0.5% Triton-X100, 15 mM imidazole, 5 mM βME). The sample was loaded at a flow rate of 1 mL/min. The column was washed with 15 column volumes of buffer C (same as buffer B except with 0.2% Triton-X100). The protein was eluted with 5 column volumes of buffer D (same as buffer C except with 200 mM Imidazole). […]

[2] = test system: HCV replicon in Huh7 cells; test: HCV replicon cell-based assay (replicon FRET assay); set-up: species or system HCV strain 1B; settings: Hepatitis C virus, Huh-7, HCV replicon cell assay; EC50 ranges
Description: An HCV replicon whole cell system was established as described by Lohmann V, Korner F, Koch J, Herian U, Theilmann L, Bartenschlager R., Science 285 (5424):110-3 (1999). This system enabled us to evaluate the effects of our HCV Protease compounds on HCV RNA replication. Briefly, using the HCV strain 1B sequence described in the Lohmann paper (Assession number:AJ238799), an HCV cDNA was generated encoding the 5′ internal ribosome entry site (IRES), the neomycin resistance gene, the EMCV (encephalomyocarditis viurs)-IRES and the HCV nonstructural proteins, NS3-NS5B, and 3′ non-translated region (NTR). In vitro transcripts of the cDNA were transfected into the human hepatoma cell line, Huh7. […] Resulting cell lines were characterized for positive and negative strand RNA production and protein production over time.
Huh7 cells, constitutively expressing the HCV replicon, were grown in Dulbecco's Modified Eagle Media (DMEM) containing 10% Fetal calf serum (FCS) and 1 mg/ml G418 (Gibco-BRL). Cells were seeded the night before (1.5×10^4 cells/well) in 96-well tissue-culture sterile plates. Compound and no compound controls were prepared in DMEM containing 4% FCS, 1:100 Penicillin/Streptomysin, 1:100 L-glutamine and 5% DMSO in the dilution plate (0.5% DMSO final concentration in the assay). Compound/DMSO mixes were added to the cells and incubated for 4 days at 37° C. After 4 days, plates were rinsed thoroughly with Phosphate-Buffered Saline (PBS) (3 times 150 μl). The cells were lysed with 25 μl of a lysis assay reagent containing the FRET peptide (RET S1, as described for the in vitro enzyme assay). The lysis assay reagent was made from 5× cell Luciferase cell culture lysis reagent(Promega #E153A) diluted to 1× with distilled water, NaCl added to 150 mM final, the FRET peptide diluted to 10 μM final from a 2 mM stock in 100% DMSO. The plate was then placed into the Cytofluor 4000 instrument which had been set to 340 nm excitation/490 emission, automatic mode for 21 cycles and the plate read in a kinetic mode. EC50 determinations were carried out as described for the IC50 determinations.

Compound	IC50 [1] [nM]	EC50 [2] [nM]
COc1ccc2c(O[C@@H]3C[C@H]4C(=O)N[C@]5(C(=O)NS(=O)(=O)C6CCC6)CC5CCCCCC[C@H](NC(=O)OC(C)(C)C)C(=O)N4C3)cc(-c3ccccc3)nc2c1 (stereo partly drawn) [Compound 18, (1S,4R,6R,13S,17R)-[4-Cyclobutanesulfonylaminocarbonyl-17-(7-methoxy-2-phenylquinolin-4-yloxy)-2,14-dioxo-3,15-diazatricyclo[13.3.0.0^4,6]octa-dec-13-yl]carbamic acid tert-butyl ester]	< 50	< 50
COc1ccc2c(O[C@@H]3C[C@H]4C(=O)N[C@]5(C(=O)NS(=O)(=O)C6CCC6)CC5CCCCCCC[C@H](NC(=O)OC(C)(C)C)C(=O)N4C3)cc(-c3ccccc3)nc2c1 (stereo partly drawn) [Compound 19, (1S,4R,6R,14S,18R)-[4-Cyclobutanesulfonylaminocarbonyl-18-(7-methoxy-2-phenylquinolin-4-yloxy)-2,15-dioxo-3,16-diazatricyclo-[14.3.0.0^4,6]nona-dec-14-yl]carbamic acid tert-butyl ester]	< 50	< 50
COc1ccc2c(O[C@@H]3C[C@H]4C(=O)N[C@]5(C(=O)NS(=O)(=O)C6CC6)C[C@H]5/C=C\CCCCC[C@H](NC(=O)OCCF)C(=O)N4C3)cc(-c3ccccc3)nc2c1 [Compound 21, (1S,4R,6S,14S,18R)-7-cis-[4-Cyclopropanesulfonylaminocarbonyl-18-(7-methoxy-2-phenylquinolin-4-yloxy)-2,15-dioxo-3,16-diazatricyclo-[14.3.0.0^4,6]nonadec-7-en-14-yl]carbamic acid 2-fluoroethyl ester]	< 50	< 50
COc1ccc2c(O[C@@H]3C[C@H]4C(=O)N[C@]5(C(=O)NS(=O)(=O)C6CC6)CC5CCCCCC[C@H](NC(=O)O[C@H]5CCOC5)C(=O)N4C3)cc(-c3ccccc3)nc2c1 (stereo partly drawn) [Compound 26, (1S,4R,6R,14S,17R,3′S)-[4-Cyclopropanesulfonyl-aminocarbonyl-17-(7-methoxy-2-phenylquinolin-4-yloxy)-2,14-dioxo-3,15-diazatricyclo[13.3.0.0^4,6]-octadec-13-yl]-carbamic acid tetrahydrofuran-3′-yl ester]	< 50	< 50
COc1ccc2c(O[C@@H]3C[C@H]4C(=O)N[C@]5(C(=O)NS(=O)(=O)C6CC6)CC5/C=C\CCCCC[C@H](N)C(=O)N4C3)cc(-c3ccccc3)nc2c1 (stereo partly drawn) [Compound 10, (1S,4R,6S,14S,18R)-7-cis-Cyclopropane-sulfonic acid [14-amino-18-(7-methoxy-2-phenylquinol-in-4-yloxy)-2,15-dioxo-3,16-diazatricyclo[14.3.0.0^4,6]-nonadec-7-ene-4-carbonyl]amide dihydrochloride]	< 50	< 50
COc1ccc2c(O[C@@H]3C[C@H]4C(=O)N[C@]5(C(=O)NS(=O)(=O)C6CC6)C[C@H]5/C=C\CCCCC[C@@H](NC(=O)OC(C)(C)C)C(=O)N4C3)ccnc2c1 [Compound 12]	< 500	< 500
COc1ccc2c(O[C@@H]3C[C@H]4C(=O)N[C@]5(C(=O)NS(=O)(=O)C6CC6)CC5CCCCCCC[C@H](NC(=O)OC5CCOCC5)C(=O)N4C3)cc(-c3ccccc3)nc2c1 (stereo partly drawn) [Compound 23, (1S,4R,6R,14S,18R)-[4-Cyclopropanesulfonyl-aminocarbonyl-18-(7-methoxy-2-phenylquinolin-4-yloxy)-2,15-dioxo-3,16-diazatricyclo[14.3.0.0^4,6]nonadec-14-yl]carbamic acid tetrahydro[4H]pyran-4-yl ester]	< 50	< 50
COc1ccc2c(O[C@@H]3C[C@H]4C(=O)N[C@]5(C(=O)NS(=O)(=O)C6CC6)C[C@H]5CCCCCC[C@H](NC(=O)OC(C)(C)C)C(=O)N4C3)cc(-c3ccccc3)nc2c1 [Compound 13, (1S,4R,6R,13S,17R)-[4-Cyclopropanesulfonylaminocarbonyl-17-(7-methoxy-2-phenylquinolin-4-yloxy)-2,14-dioxo-3,15-diazatricyclo[13.3.0.0^4,6]-octadec-13-yl]-carbamic acid tert-butyl ester]	< 50	< 50
COc1ccc2c(O[C@@H]3C[C@H]4C(=O)N[C@]5(C(=O)NS(=O)(=O)C6CC6)CC5/C=C\CCCS(=O)(=O)C[C@H](NC(=O)OC(C)(C)C)C(=O)N4C3)cc(-c3ccccc3)nc2c1 (stereo partly drawn) [Compound 32, (1S,4R,6S,14S,18R)-7-cis-[4-Cyclopropanesulfonylaminocarbonyl-18-(7-methoxy-2-phenyl-quinolin-4-yloxy)-2,12,12,15-tetraoxo-12,16-thia-3,16-diazatricyclo[14.3.0.0^4,6]nonadec-7-en-14-yl]carbamic acid tert-butyl ester]	< 50	< 50
COc1ccc2c(O[C@@H]3C[C@H]4C(=O)N[C@]5(C(=O)NS(=O)(=O)C6CCC6)C[C@H]5/C=C\CCCC[C@H](NC(=O)OC(C)(C)C)C(=O)N4C3)cc(-c3ccccc3)nc2c1 [Compound 17, (1S,4R,6S,13S,17R)-7-cis-[4-Cyclobutanesulfonylaminocarbonyl-17-(7-methoxy-2-phenylquinolin-4-yloxy)-2,14-dioxo-3,15-diazatricyclo[13.3.0.0^4,6]octadec-7-en-13-yl]carbamic acid tert-butyl ester]	< 50	< 500
